Earlier results, collected in patent EP1249231B1, “Pharmaceutical formulations comprising anti-inflammatory compounds and use thereof” (VESIFACT AG, priority 2001, dated 2002).

Conditions: free acid; background statement

For `CC(C)Cc1ccc(C(C)C(=O)O)cc1` (stereo not shown) [Ibuprofen], the “Löslichkeit in Wasser und im sauren Milieu des Magensaftes” value is listed as “schlecht löslich”.
